Drawing on a melting point compilation (Tetko et al.; mined from patent text by program, amines drawn as free bases though some values may be those of a salt), this text covers melting point for 87 compounds.

In general, melting point refers to the temperature, or range, at which the solid turns liquid.

`CCOC(=O)C1=C(C)Nc2nc(N3CCOCC3)nc(N3CCOCC3)c2C1c1cccc2nonc12` (configuration not stated) had a melting point of 234 °C. In the case of `O=C(O)COc1ccc2cc(-c3ccc(-c4ccccc4)n3Cc3ccccc3)ccc2c1` it was 171 to 172 °C; in that of `N#Cc1ccccc1OCCCCCCCC(=O)O`, 83 to 85 °C; in that of `CCOC(=O)C1C(=O)c2cc(OC)ccc2N=C1c1ccccc1` (configuration not stated), 225 to 227 °C. `CCOC(=O)CC(=O)Nc1ccc(F)cc1F` displayed a melting point of 66 to 68 °C.

Regarding `CN1CCN(c2ccc(Nc3cc(-c4cccc(N5Cc6cc(C(C)(C)C)ccc6C5=O)c4CO)cn(C)c3=O)nn2)CC1`, the melting point was in the range of 171 to 172 °C. In the case of `CC(=O)OC1CSC(Oc2cc(-c3cccnc3)cnc2F)C(OC(C)=O)C1OC(C)=O` (configuration not stated) it was 67 to 68 °C; in that of `CS(=O)(=O)Nc1cc2c(c(C(=O)O)c1)NCCCC2`, 204 to 205 °C; in that of `O=C1c2c(-c3ccccc3)noc2CCC1CCCN1CCC(n2c(=O)[nH]c3ccccc32)CC1` (configuration not stated), 212 to 218 °C. In the case of `CSC1=CNSC1(C#N)SC` (configuration not stated) it was 63.5 to 64 °C; in that of `Cn1nc2ccc(OCCCN3CCC(OC(c4ccccc4)c4ccccc4)CC3)nn2c1=O`, 139 to 140 °C. `Cc1ccc(S(=O)(=O)OCCCn2c3c(c4ccccc4c2=O)C(=O)c2ccccc2-3)cc1` came in with a melting point of 177 to 179 °C. In the case of `Cc1ccc(-c2ccc3cc(C(=O)Nc4ccc(CN(C)C5CCOCC5)cc4)n(C)c3c2)cc1` it was 225 to 226 °C; in that of `C=Cn1cc(C(=O)O)c(=O)c2cc(F)c(F)c(F)c21`, 186 to 187 °C; in that of `Cc1ccc(-c2nc3ccc(C)cn3c2C(O)C(=O)N(C)C)cc1` (configuration not stated), 175 to 177 °C. As for `Nc1ccccc1-c1nc(CCS(=O)(=O)CCO)no1`, the melting point is 118 to 119 °C. Compound `CC1(C)CCC2(CC1S(=O)(=O)c1ccccc1)OCCO2` (configuration not stated) had a melting point of 113 to 115 °C. The result for `CC(NC(=O)CCCl)c1ccc(Cl)cc1` (configuration not stated) reads 86 to 91 °C; that for `CCNc1ccc(-c2cc3ccccc3o2)cc1`, 126 to 128 °C. The result for `O=C(Cc1ccc(Br)cc1)c1ccc(Cl)cc1Cl` reads 69 to 70 °C; that for `Cc1cccc(C(=O)NC(NC(=NC#N)Nc2cccnc2)C(C)(Cl)Cl)c1` (configuration not stated), 171 to 172 °C.

As to `Cc1cc(Cl)c(-n2nc(C#N)c(-c3ccco3)c2N)c(Cl)c1`, the melting point came out at 192 °C. In the case of `CC(C)NC1=NS(=O)(=O)c2cc(Cl)cc([N+](=O)[O-])c2N1` it was 266 to 267 °C; in that of `CNC(=O)c1cc2[nH]c(C)nc2c2c1CCC1(Cc3ccccc3C1)N2`, 240 to 241 °C; in that of `COC(=O)c1cc(Nc2ccc(C)cc2)c(C(=O)OC)cc1Nc1ccc(C)cc1`, 205 to 207 °C. In turn, `O=C1OC(=O)[C@@H](Cl)[C@@H]1Cl` (relative stereo) came in with a melting point of 90 to 92 °C. The result for `CCCNCCCOc1ccc(-c2ccc(C(=O)OCC)cc2)cc1-c1ccc2c(c1)C(C)(C)CCC2(C)C` reads 120 °C. The result for `C#Cc1cnc2c(c1)C(=O)N(C)c1cccnc1N2CC` reads 117 to 118 °C; that for `CN1CCN(S(=O)(=O)NC(Cc2ccccc2)C(=O)O)CC1` (configuration not stated), greater than 200 °C; that for `COC(=O)c1ccc(NC(=O)C(N)c2ccc3c(c2)C(C)(C)CCC3(C)C)n1C` (configuration not stated), 143 to 144 °C. The result for `CCn1c(=S)c2[nH]c(C(C)C)nc2n(Cc2ccc(OC)c(OC3CCCC3)c2)c1=O` reads 176 to 177 °C; that for `O[C@H](COc1cccc2[nH]ccc12)CN1CC=C(c2c[nH]c3cccc(F)c23)CC1`, 90 to 95 °C.

The compound `O=C(Nc1ccc2[nH]c(=O)n(CCCCN3CC=C(c4ccccc4)CC3)c(=O)c2c1)C(F)(F)F` had a melting point of 245 °C. The result for `CCOC(=O)c1c([N+](=O)[O-])ccc(OC)c1OC` reads 70 to 72 °C. In the case of `C=CCNC(=O)c1ccc([N+](=O)[O-])cc1Br` it was 98 to 100 °C. `OCCc1ccc(OCc2ccc(Cl)cc2Cl)cc1` had a melting point of 55 °C.

In turn, `COc1cc2c(cc1OC)C(=O)C(=Cc1cc(C)c([N+](=O)[O-])c(C)c1)C2` gave a melting point of 242 to 243 °C. `Clc1ccc(-c2csc(-c3cnccc3Cl)n2)cc1` came in with a melting point of 149 to 150 °C. In the case of `CCc1nc2c(cnn2CC)c(NC2CCOCC2)c1CNC(=O)c1cc(C)cc(C(=O)NCc2ccc(OC)c(-c3cccc(CN4CCNC(C)C4)c3)c2)c1` (configuration not stated) it was 121 to 123 °C. The result for `O=C(SC[C@H](SC(=O)c1ccccc1)C(=O)N[C@@H](CO)C(=O)O)c1ccccc1` reads 147 to 150 °C; that for `COc1cc(OC)nc(C2(C#N)OC(=O)c3c(-c4ccccc4)ccnc32)n1` (configuration not stated), 196 to 198 °C. In the case of `Cn1c(COc2ccc(CC3SC(=O)NC3=O)cc2)nc2cccnc21` (configuration not stated) it was 223 to 225 °C; in that of `O=C1NCn2c3ccccc3c(=O)c3cccc1c32`, 250 to 255 °C. `Cc1cc(C2c3cc4c(cc3CC(C)NN2C(=O)NC(C)c2ccccc2)OCO4)ccc1[N+](=O)[O-]` (configuration not stated): the melting point fell in the range of 202 to 204 °C. The result for `CCOC(=O)C1(C(=O)OCC)CCC2(CC1)NCCc1cc(OC)ccc12` reads 81 to 83 °C; that for `OCc1c(Cl)cncc1Cl`, 87 to 88 °C. In the case of `CCCCc1nn(-c2cc(NC(=O)CC)ccc2Cl)c(=O)n1Cc1ccc(-c2ccccc2S(=O)(=O)NC(=O)c2cc(Cl)ccc2Cl)cc1F` it was 169 to 172 °C; in that of `CCn1c(=O)ccc2cnc(Nc3ccc(OCCOC)cc3)nc21`, 169 to 171 °C; in that of `Nc1nc2c(c(Nc3ccc(Br)cc3)n1)-c1ccccc1C2`, 214 to 215 °C. The result for `O=C(CCl)NC(C(=O)O)c1cscn1` (configuration not stated) reads 193 to 195 °C; that for `COc1ccc2c(c1)NCc1ccccc1O2`, 110 to 112 °C. Consider `COc1ccc(CC(=O)O)cc1OCCc1ccccc1`, for which the melting point lay within 88 to 89 °C. In the case of `O=Cc1ccc2c(c1)CC[C@H](Cc1ccc(O)cc1)O2` it was 134 to 135 °C; in that of `Cc1nc(N2C[C@@H](C)N(Cc3ccc(C(F)(F)F)cc3)C2=O)sc1C(N)=O`, 110 to 112 °C; in that of `CS(=O)(=O)c1ccc(/C(=C\C2CCCCC2)C(=O)O)cc1`, 195 to 197 °C. The compound `CCOC(=O)C(=CNc1sc(-c2ccc(OC)cc2)c(C)c1C(=O)O)C(=O)OCC` gave a melting point of 184 to 187 °C. In the case of `Cc1cc(C)nc(NC(=O)NS(=O)(=O)c2ccccc2C(=O)N(C)C)n1` it was 166 to 168 °C. In the case of `COc1ccc(-c2nc(CN3CCOCC3)nc3cc(OC)c(OC)cc23)cc1OC` it was 148 to 150 °C; in that of `Cn1nc(-c2c(F)cccc2Cl)nc1-c1ccc(OCc2ccc(C(F)(F)F)cc2Cl)c(Cl)c1`, 156 to 159 °C. The result for `CC12C=CC(=O)C=C1CCC1C2=CCC2(C)C1CCC2(O)C(=O)CCl` (configuration not stated) reads 205 to 206 °C; that for `CCCCCCN1CC(C(=O)OC)N(S(=O)(=O)c2ccc(-c3ccc(Br)cc3)cc2)CC1=O` (configuration not stated), 127 to 129 °C. Compound `CCOc1cc(N)ccn1` yielded a melting point of 88 to 89 °C. `Cc1nc(NC(=O)c2cnn3c(C(F)(F)F)cc(-c4ccc(C(F)(F)F)cc4)nc23)sc1S(=O)(=O)N(CCO)CCO` had a melting point of 214 °C. The result for `Cc1cc(C#N)cc(C(=O)Nc2nc(C)cs2)n1` reads 211 °C; that for `OC1CSC(Oc2cccc3conc23)C(O)C1O` (configuration not stated), 115 °C. The result for `CC(C)OC(=O)N1CCC(c2ccc3oc(-c4ccc(C(F)(F)F)cc4)nc3c2)CC1` reads 145 to 148 °C; that for `CN1C(C(=O)Nc2ccccc2)=C(O)c2sc3ccccc3c2S1(=O)=O`, 261 to 263 °C; that for `CCCCCCCCCCN1CCC2(CC1)CSC1=C(O2)c2ccccc2C(=O)C1=O`, 110 to 111 °C.

The compound `COC(=O)c1c(N)ncn1C1c2ccccc2CC2CCCCC21` (configuration not stated) showed a melting point of 155 to 159 °C. In the case of `COC(=O)c1cc(NC(C)=O)ccc1OC` it was 132 to 134 °C. `COc1ccc2c3c(c(=O)oc2c1)CN(CCc1ccccc1)CC3` came in with a melting point of 135 to 136 °C. In the case of `CC(C)(C)OC(=O)CN1CCC(CNC(=O)N2CCN(C3CCN(C(=O)OC(C)(C)C)CC3)CC2)CC1`, the melting point is 131 to 133 °C. The result for `CN(Cc1ccccc1)c1sc(-c2ccncc2)c2c1C(=O)CC2` reads 145 to 147 °C.

`Cc1ccccc1N=C=Nc1ccccc1C`: the melting point is 3.5 to 4.5 °C. The result for `CC(=O)C(=Cc1ccccc1)c1ccncc1` reads 101 to 103 °C. The result for `N#Cc1ncn2c1[C@@H]1CCN1C(=O)c1c-2ccc(F)c1Cl` reads 225 to 228 °C. The result for `COc1cc([N+](=O)[O-])ccc1OCC(=O)C1CC1` reads 112 to 113 °C. `CCN1CCN2C(=O)c3ccccc3C12c1ccccc1` (configuration not stated) came in with a melting point of 122 to 124 °C. The result for `CCc1ccc(-c2oc3cccc4c3c2C=CC4=O)cc1` reads 186 °C; that for `CC(C)(C)OC(=O)NCCCCNC1(c2ccccc2Cl)C(=O)Nc2ccc(Cl)cc21` (configuration not stated), 175 to 176 °C; that for `CN(CCCCCCNC(=NCCCOc1cccc(CN2CCCCC2)c1)NC#N)CCN(Cc1ccc(F)cc1)c1ccccn1`, 58 °C. For the compound `COc1ccc(OC)c2c(Nc3cccc(Br)c3)c(C#N)cnc12`, the melting point fell in the range of 72 to 74 °C. The compound `CCOC(=O)C1=C(N)NC(c2ccccc2)=CC1c1cccc(Cl)c1` (configuration not stated) had a melting point of 161 °C. In the case of `COc1cc2c(cc1OCc1ccccc1)C(Sc1ccccc1)(C(N)=CC#N)C2` (configuration not stated) it was 122 to 125 °C. In the case of `Cc1nc2cc(Cl)ccc2c(=O)n1C1CCC(=O)NC1=O` (configuration not stated) it was 291 to 293 °C; in that of `CC1(C)C(C=C(F)C(=O)O)C1C(=O)OCc1ccccc1` (configuration not stated), 88 °C.

The compound `CCCOc1ccc(S(C)(=O)=O)cc1C(=O)Nc1c(CC)nn(CC2CCCN2C)c1C(N)=O` (configuration not stated) registered a melting point of 217 to 221 °C.
